From US20230340530A1, “Methods of Protecting RNA” (Pfizer Inc., priority 2020, published 2023)

Target: RNA samples (Chi18 or HCV IRES)
Test: Droplet Digital Polymerase Chain Reaction (ddPCR) assay of RNA protection
Assay type: biochemical
Conditions: 50 mM Tris buffer pH 11.4, 16 hrs at 30° C. for Chi18 or 42° C. for HCV; table does not say which RNA; 600 µM to 0.018 µM compound, 2% DMSO; read-out: EC50 Values Obtained from the ddPCR Assay
Experimental: The ddPCR assays measured RNA integrity by converting intact RNA to cDNA by reverse transcription, then performing digital PCR in thousands of nanoliter-sized droplets for each sample. PCR was performed within each droplet, which allowed for more sensitive detection of subtle changes in RNA concentration compared to traditional PCR or qPCR. Additionally, primers/probes specific to the 5′ end of the RNA/cDNA transcript(s) were used to assess fragment integrity, i.e. degraded RNA had fewer 5′ positive droplets. The BioRad QX200 Droplet Digital PCR System was used for the ddPCR workflow.
RNA samples (Chi18 or HCV IRES) were diluted to 100 fg/µL in 50 mM Tris buffer pH 11.4. Boron compounds were tested in a dose-response format to determine EC50. A compound dilution plate that contained a 30 mM top concentration of compound in DMSO was serially (half-log) diluted 10 times. A quantity of 0.12 µL of this compound dilution plate was spotted into a 96-well PCR plate (Thermo). Sample RNAs were added (6 µL) and incubated with test compounds as described below. Final compound concentrations ranged from 600 µM to 0.018 µM in 2% DMSO.
For the degradation reaction, treated RNAs were incubated for 16 hrs at 30° C. for Chi18 samples or 42° C. for HCV samples. Upon completion of the degradation reaction, cDNA was made and ddPCR run for each sample (96 well plates). Positive 5′ droplet values were divided by the total accepted droplet values for each sample and a ratio value generated for each sample.
Data was imported into a database where percent (%) protection and compound EC50 were calculated and curated. […] EC50 was determined by using a four parameter logistic equation: Y=A+((B-A)/(1+(C/X)D)); where Y is percent protection, X is compound concentration, A and B are minimum and maximum asymptotes, respectively, C is EC50, and D is Hill slope.

Compound | EC50
C[C@H]1c2ccc(NC(=O)CCC(=O)NC[C@H]3CCB(O)O3)c(O)c2C(=O)C2=C(O)[C@]3(O)C(=O)C(C(N)=O)=C(O)[C@@H](N(C)C)[C@@H]3[C@@H](O)[C@@H]21 (racemic) [PF-06968488, N~1~-[(5RS,5aRS,6SR,6aRS,7S R,10aSR)-9-carbamoyl-7-(dimethylamino)-1,6,8,10a,11-pentahydroxy-5-methyl-10,12-dioxo-5,5a,6,6a,7,10,10a,12-octahydrotetracen-2-yl]-N~4~-{[(5RS)-2-hydroxy-1,2-oxaborolan-5-y I]methyl}butanediamide] | 189 µM
Cc1cc(CNc2nc(N3CCC[C@@H](c4ccccc4C)C3)nc3[nH]ccc23)on1 [PF-00838447, N-[(3-methyl-1,2-oxazol-5-yl)methyl]-2-[(3S)-3-(2-methylphenyl)piperidin-1-yl]-7H-pyrrolo[2,3-d]pyrimidin-4-amine] | 388 µM
BBBBBBBBBB1C(Cc2ccc(O)cc2)=C1Cc1ccc(O)cc1 [PF-01914444, 4,4′-{[1-(nonaboran-1-yl)-1H-borirene-2,3-diyl]bis(methylene)}diphenol] | 488 µM
CN(C)/C(O)=C/C1=[O+][B-](F)(F)OC=C1c1ccccc1 [PF-03696713, [(1Z)-1-(dimethylamino)-1-hydroxy-5-(hydroxy-kappaO)-4-phenylpenta-1,4-dien-3-onato-kappaO](difluorido)boron] | 400 µM
CN(C)/C(O)=C/C1=[O+][B-](F)(F)Oc2cc(O)ccc21 [PF-03806704, {(2Z)-3-(dimethylamino)-3-hydroxy-1-[4-hydroxy-2-(hydroxy-kappaO)phenyl]prop-2-en-1-onato-kappaO}(difluorido)boron] | 323 µM
Clc1cc2c(cc1Cl)OB(c1ccc(Br)cc1)O2 [PF-04009301, 2-(4-bromophenyl)-5,6-dichloro-2H-1,3,2-benzodioxaborole] | 474 µM
Cc1cc(C(=O)O)ccc1B1OC(C)(C)C(C)(C)O1 [PF-05417781, 3-methyl-4-(4,4,5,5-tetramethyl-1,3,2-dioxaborolan-2-yl)benzoic acid] | 463 µM
OB(c1ccc(Cl)cc1)c1ccc(Cl)cc1 [PF-05690484, bis(4-chlorophenyl)borinic acid] | 355 µM
C=C(CN(C)Cc1ccccc1)[B-](F)(F)F [PF-06840997, {3-[benzyl(methyl)amino]prop-1-en-2-yl}(trifluorido)borate(1-)] | 306 µM
Cc1cccnc1N(C(=O)c1ccc([B-](F)(F)F)cc1)[C@@H]1CCCN(C(=O)OC(C)(C)C)C1 [PF-06875313, (4-{[(3R)-1-(tert-butoxycarbonyl)piperidin-3-yl](3-methylpyridin-2-yl)carbamoyl}phenyl)(trifluor ido)borate(1-)] | 360 µM
CC(C)(C)OC(=O)NCCC[B-](F)(F)F [PF-06934734, {3-[(tert-butoxycarbonyl)amino]propyl}(trifluorido)borate(1-)] | 302 µM
O=C(OB(c1cccc(F)c1)c1cccc(F)c1)c1ncccc1O [PF-06956417] | 430 µM
CC1(C)COC(c2cccc(B(Oc3cccc4cccnc34)c3cccc(F)c3)c2)=N1 [PF-06956596, quinolin-8-yl [3-(4,4-dimethyl-4,5-dihydro-1,3-oxazol-2-yl)phenyl](3-fluorophenyl)borinate] | 300 µM
CN1CCN(Cc2cccc([B@@-]3(c4ccc(F)cc4)Oc4cccc5ccc[n+]3c45)c2)CC1 [PF-06956810, (4-fluorophenyl){3-[(4-methylpiperazin-1-yl)methyl]phenyl}(quinolin-8-olato-kappa-2-N,O)boron] | 140 µM
CN(C)Cc1ccc(B(Oc2cccc3cccnc23)c2cccc(C#N)c2)cc1Cl [PF-06956816, quinolin-8-yl {3-chloro-4-[(dimethylamino)methyl]phenyl}(3-cyanophenyl)borinate] | 137 µM
CN1CCN(Cc2ccc(B(Oc3cccc4cccnc34)c3ccc(C#N)c(Cl)c3)cc2F)CC1 [PF-06956823, quinolin-8-yl (3-chloro-4-cyanophenyl){3-fluoro-4-[(4-methylpiperazin-1-yl)methyl]phenyl}borinate] | 175 µM
